In patent US4064128A, “N,[3-(4'-fluorobenzoyl)propyl]-N2 -(2'-chloro-5'-methylphenoxy)ethyl]p i” (Kali-Chemie Aktiengesellschaft, priority 1971, dated 1977):
“Also recorded” adds a separate entry of the source.

What was measured:
[1] = system: aggression induced by clonidine; assay: Inhibition of aggression induced by clonidine (Morpurgo); format: in vivo; settings: Mus musculus, ip, 30 min before 46.4 mg/kg i.p. clonidine, mice; read-out: Aggression test (Morpurgo), ED50
Protocol: Test 3. Inhibition of aggression induced by clonidine
This test was described by C. Morpurgo in European Journal of Pharmacology,vol. […] In this test 12 mice are separated into pairs and each mouse is injected intraperitoneally with a dose of the test compound. […] Clonidine at this dosage level produces an aggressive behaviour in the mice which expresses itself in violent bouts of fighting and biting. The mice are observed and their behaviour scored in accordance with a point system. The mice are observed during a period of 30 minutes and each pair of mice scores 2 points if, during any 10 minute interval, two or more encounters or bouts had occurred. Six pairs of mice accordingly cannot score more than a total of 36 points during the 30 minute period, which is rated 100%.

[2] = system: hexobarbital sleep duration; assay: Sleep prolongation test (hexobarbital); format: in vivo, female mice; settings: for ED (4-fold prolongation): Mus musculus, po, dose p.o. 30 min before 65 mg/kg i.v. hexobarbital, mice, read-out: Fourfold prolongation of hexobarbital sleep duration; for sedative effect (in words), sleep prolongation and aggression test: prolongation of hexobarbital sleep duration and aggression test
Protocol: Test 2. Sleep prolongation test
In this test a dose of the test compound is first administered perorally to female mice. After an interval of 30 minutes a dose of 65 milligrams of hexobarbital per kilogram of body weight of the animal is administered intravenously to the mice. The length of the period after administration of the hexabarbital during which the mouse remains sleeping on its side before turning over onto its abdomen, is then noted.

[3] = Acute oral toxicity (LD50 p.o.); format: in vivo; settings: for LD50 at 168 h: mouse, in vivo, po, mice, single dose, 7 days survival period; for toxicity (in words): compared with the other tested compounds
Protocol: Test 1. Acute oral toxicity
The acute oral toxicity (LD50 p.o.) was determined by peroral administration of a single dose of the compound to fasting white male mice.
The lethal dose in terms of milligrams of the compound per kilogram of body weight of the tested animals was computed in accordance with the method described by J. P. Litchfeld and F. Wilcoxon in Journal of Pharmacology and Experimental Therapeutics, vol. 96, page 99 (1949).
The doses that are referred to herein were all computed in accordance with the said method. The results in this test were based upon a survival period of 7 days.

phenyl quinone writhing = assay: Analgesic effect, Writhing test (phenyl quinone); format: in vivo, male albino mice (NMRI strain); settings: for ED (effect equal to amidopyrine 100 mg/kg): Mus musculus, oral dose equivalent to 100 mg/kg oral amidopyrine, phenyl quinone 1.5 mg/kg, read-out: Writhing-test (dose producing same effect as amidopyrine)
Protocol: The analygesic effect of the substance was determined by the Writhing test. The substances to be tested were administered to male albino mice (NMRI strain) in accordance with the method described by E. Sigmund, R. Cadmus and G. Lu in Proc. Soc. exp. […] After 30 minutes, 1.5 mg. of phenyl quinone per kg. of body weight were administered to the test animals through the abdominal cavity. Amidopyrine was orally administered as comparison substance in a dose of 100 mg/kg. The figures set out in Table 2 indicate the oral doses of the compounds according to the invention in mg/kg which produce the same effect as the dose of the comparison substance.

ileum portion = assay: Antihistamine action, Magnus procedure; parameters: species or system Pirbright guinea pigs; settings: Cavia porcellus, guinea pig ileum, read-out: Antihistamine action ED50
Excerpt: Test 5. Antihistamine action
The ED50 has been given in mol/1.

[4] = listed as compound of the invention

| Compound | ED50 [1] | ED (4-fold prolongation) [2] | LD50 at 168 h [3] | ED (effect equal to amidopyrine 100 mg/kg) (phenyl quinone writhing) | sedative effect (in words), sleep prolongation and aggression test [2] | sedative effect (in words), sleep prolongation and aggression test [2, 4] | IC50 (ileum portion) | toxicity (in words) [3, 4] | analgesic effect (in words) (phenyl quinone writhing; Writhing test) | toxicity (in words) [3] |
| --- | --- | --- | --- | --- | --- | --- | --- | --- | --- | --- |
| Cc1cccc(OCCN2CCN(CCCC(=O)c3ccc(F)cc3)CC2)c1C [2,3-dimethylphenyl] | 4.6 mg/kg | 120 mg/kg | 1040 mg/kg | 23 mg/kg | – | – | – | – | – | – |
| Cc1ccc(C)c(OCCN2CCN(CCCC(=O)c3ccc(F)cc3)CC2)c1 [2,5-dimethylphenyl] | – | 100 mg/kg | 1240 mg/kg | 17 mg/kg | – | – | – | – | – | – |
| O=C(CCCN1CCN(CCOc2c(Cl)cccc2Cl)CC1)c1ccc(F)cc1 [2,6-dichlorophenyl, reference compound] | 7.4 mg/kg | 117 mg/kg | 1020 mg/kg | – | – | – | – | – | – | – |
| Cc1ccc(Cl)c(OCCN2CCN(CCCC(=O)c3ccc(F)cc3)CC2)c1 [2-chloro-5-methylphenyl] | 0.35 mg/kg | 7 mg/kg | 464 mg/kg | 6 mg/kg | substantially better results in regard to sedative effects | the same or better than that of the 4-nitrophenyl compound | 7 nM | very substantially lower than that of 4-nitrophenyl; also recorded: low toxicity | good analgesic effects | – |
| Cc1cc(C)cc(OCCN2CCN(CCCC(=O)c3ccc(F)cc3)CC2)c1 [3,5-dimethylphenyl] | – | 68 mg/kg | 297 mg/kg | 6.9 mg/kg | less satisfactory sedative effect | – | – | – | – | even a higher toxicity |
| Cc1cc(Cl)ccc1OCCN1CCN(CCCC(=O)c2ccc(F)cc2)CC1 [4-chloro-2-methylphenyl] | 2.5 mg/kg | 100 mg/kg | 1000 mg/kg | 68.1 mg/kg | – | – | 17 nM | – | – | – |
| O=C(CCCN1CCN(CCOc2ccc(Cl)cc2)CC1)c1ccc(F)cc1 [4-chlorophenyl, reference compound] | 6 mg/kg | 21.5 mg/kg | 336 mg/kg | 5.5 mg/kg | – | – | 9 nM | – | – | – |
| O=C(CCCN1CCN(CCOc2ccc([N+](=O)[O-])cc2)CC1)c1ccc(F)cc1 [4-nitrophenyl] | 0.7 mg/kg | 8 mg/kg | 215 mg/kg | 1.8 mg/kg | – | – | 4 nM | – | – | – |
| O=C(CCCN1CCN(Cc2ccc(F)cc2)CC1)c1ccc(F)cc1 [fluorobenzyl, no O-bridge, reference compound] | 7.6 mg/kg | 18.5 mg/kg | 431 mg/kg | 49.5 mg/kg | – | – | 120 nM | – | – | – |
| COc1ccc(CN2CCN(CCCC(=O)c3ccc(F)cc3)CC2)cc1 [methoxyphenyl, no O-bridge, reference compound] | 4.7 mg/kg | 33.9 mg/kg | 431 mg/kg | 62 mg/kg | – | – | 150 nM | – | – | – |
